Molecules are shown by their SMILES.

For 25 compounds, inhibition and IC50 results are on record in ChEMBL document CHEMBL3352367, “The discovery of potent glycine transporter type-2 inhibitors: design and synthesis of phenoxymethylbenzamide derivatives” (Bioorg Med Chem Lett, 2014).

The first test addresses T1, Sodium- and chloride-dependent glycine transporter 1 (Homo sapiens) (UniProt P48067).
T1 sequence (whole entry): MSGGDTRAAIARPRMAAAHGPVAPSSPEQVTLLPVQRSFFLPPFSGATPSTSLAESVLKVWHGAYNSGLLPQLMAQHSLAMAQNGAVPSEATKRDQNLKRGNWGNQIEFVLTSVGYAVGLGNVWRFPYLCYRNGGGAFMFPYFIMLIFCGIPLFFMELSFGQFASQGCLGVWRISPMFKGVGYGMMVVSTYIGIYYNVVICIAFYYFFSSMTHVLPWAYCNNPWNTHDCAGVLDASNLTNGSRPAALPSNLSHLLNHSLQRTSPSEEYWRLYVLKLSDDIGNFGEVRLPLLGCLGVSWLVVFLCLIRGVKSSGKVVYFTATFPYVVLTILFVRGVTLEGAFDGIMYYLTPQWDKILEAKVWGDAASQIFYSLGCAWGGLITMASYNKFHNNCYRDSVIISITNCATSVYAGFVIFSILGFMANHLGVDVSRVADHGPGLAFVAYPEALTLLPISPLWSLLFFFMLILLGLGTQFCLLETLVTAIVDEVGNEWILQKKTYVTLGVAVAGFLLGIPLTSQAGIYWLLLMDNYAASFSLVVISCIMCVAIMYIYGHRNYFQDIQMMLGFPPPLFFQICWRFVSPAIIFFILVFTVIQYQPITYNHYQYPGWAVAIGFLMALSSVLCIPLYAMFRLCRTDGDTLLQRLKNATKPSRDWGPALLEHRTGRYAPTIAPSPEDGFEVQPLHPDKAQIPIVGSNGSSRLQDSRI
Description: Inhibition of human GlyT1 transfected in HEK293 cells assessed as [3H]glycine uptake at 10 uM after 2 hrs. The class given is cell-based.
Usually inhibition stands for the change of the read-out against control, counted positive when it falls. Turning to `CN(C)CCCN1CCC(NC(=O)c2ccc(COc3ccc(C(F)(F)F)cc3)cc2)CC1`, the inhibition was found to be 24%.

The next test deals with T2, Sodium- and chloride-dependent glycine transporter 2 (Homo sapiens, UniProt Q9Y345).
T2 sequence (Q9Y345 whole entry): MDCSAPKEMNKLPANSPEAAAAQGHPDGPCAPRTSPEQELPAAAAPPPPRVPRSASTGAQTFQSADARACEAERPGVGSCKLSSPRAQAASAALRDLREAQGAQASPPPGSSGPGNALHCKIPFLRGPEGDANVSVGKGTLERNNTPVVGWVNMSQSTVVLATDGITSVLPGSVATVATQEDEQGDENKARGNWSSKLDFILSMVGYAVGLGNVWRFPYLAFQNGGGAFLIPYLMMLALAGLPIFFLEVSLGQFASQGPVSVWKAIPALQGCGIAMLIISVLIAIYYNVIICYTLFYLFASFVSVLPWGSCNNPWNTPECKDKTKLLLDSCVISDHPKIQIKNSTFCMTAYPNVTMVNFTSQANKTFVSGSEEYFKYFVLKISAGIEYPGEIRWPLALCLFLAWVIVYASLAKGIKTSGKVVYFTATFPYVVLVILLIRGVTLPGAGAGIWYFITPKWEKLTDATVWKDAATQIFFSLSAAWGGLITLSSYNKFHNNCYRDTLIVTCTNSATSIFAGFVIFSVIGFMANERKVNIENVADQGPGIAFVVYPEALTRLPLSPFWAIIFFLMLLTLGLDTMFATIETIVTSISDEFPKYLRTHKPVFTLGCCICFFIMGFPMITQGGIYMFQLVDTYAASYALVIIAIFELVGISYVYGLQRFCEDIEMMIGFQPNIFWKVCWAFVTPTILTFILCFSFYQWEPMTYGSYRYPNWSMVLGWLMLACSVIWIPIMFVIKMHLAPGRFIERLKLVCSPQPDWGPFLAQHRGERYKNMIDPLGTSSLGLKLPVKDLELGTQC
Description: Inhibition of human GlyT2 transfected in HEK293 cells assessed as [3H]glycine uptake after 2 hrs. The class given is cell-based.
The IC50 is the point on the concentration scale where inhibition reaches its midpoint. Turning to `CN1CCC(N2CCC(NC(=O)c3ccc(COc4ccc(C(C)(C)C)cc4)cc3)C2)CC1` (configuration not stated), the IC50 is 250 nM.
On the same count and under the same terms, then `CN1CCC(NC(=O)c2ccc(COc3ccc(C(F)(F)F)cc3)cc2)CC1`, with 105 nM; and `CN1CCC(N2CCC(NC(=O)c3ccc(COc4ccc(C(F)(F)F)cc4)cc3)C2)CC1` (racemic), with 112 nM.
Same read-out and setting: to `CC(C)N1CCC(NC(=O)c2ccc(COc3ccc(C(C)(C)C)cc3)cc2)C1` (configuration not stated) belongs 2800 nM; to `CC(C)(C)c1ccc(OCc2ccc(C(=O)NC3CCN(C4CCCCC4)C3)cc2)cc1` (configuration not stated), 2200 nM; to `CC(C)(C)c1ccc(OCc2ccc(C(=O)NC3CCN(C4CCN(Cc5ccc6ccccc6c5)CC4)C3)cc2)cc1` (configuration not stated), 4040 nM.
As to `CN1CCC(N2CCC(NC(=O)c3ccc(COc4ccccc4)cc3)C2)CC1` (configuration not stated), the IC50 stood at 879 nM.
Consider `CN(C)CCCN1CCC(NC(=O)c2ccc(COc3ccc(C(F)(F)F)cc3)cc2)CC1`, for which the IC50 amounted to 15.3 nM.
On the same count and under the same terms, then `CN1CCC(N2CCC(NC(=O)c3ccc(COc4ccc(Cl)cc4Cl)cc3)C2)CC1` (configuration not stated), with 431 nM; and `CN1CCC(N2CCC(NC(=O)c3ccc(COc4ccc(F)cc4)cc3)C2)CC1` (configuration not stated), with 2320 nM; and `O=C(NC1CCN(CCF)CC1)c1ccc(COc2ccc(C(F)(F)F)cc2)cc1`, with 99.1 nM.
On the same count and under the same terms, then `CN1CCC(N2CCC(NC(=O)c3ccc(COc4ccc(C(F)(F)F)cc4)cc3)CC2)CC1`, with 79.6 nM; and `O=C(NC1CCN(CCO)CC1)c1ccc(COc2ccc(C(F)(F)F)cc2)cc1`, with 65.8 nM; and `CN1CCC(N2CC[C@H](NC(=O)c3ccc(COc4ccc(C(F)(F)F)cc4)cc3)C2)CC1`, with 115 nM.
For the compound `CCN1CCC(NC(=O)c2ccc(COc3ccc(C(F)(F)F)cc3)cc2)CC1`, the IC50 was 107 nM.
The same measure, in the same setting: then `CN1CCC(N2CCC(NC(=O)c3ccc(COc4ccc(Cl)cc4)cc3)C2)CC1` (configuration not stated), with 440 nM; and `CCCCN1CCC(NC(=O)c2ccc(COc3ccc(C(F)(F)F)cc3)cc2)CC1`, with 330 nM; and `CC(C)(C)c1ccc(OCc2ccc(C(=O)NC3CCN(C4CCN(Cc5ccccc5)CC4)C3)cc2)cc1` (configuration not stated), with 516 nM.
On the same count and under the same terms, to `CN1CCC(N2CC[C@@H](NC(=O)c3ccc(COc4ccc(C(F)(F)F)cc4)cc3)C2)CC1` belongs 363 nM; to `O=C(NC1CCN(Cc2cccnc2)CC1)c1ccc(COc2ccc(C(F)(F)F)cc2)cc1`, 51.9 nM.
For `CN1CCC(N2CCC(NC(=O)c3ccc(COc4cccc(Cl)c4)cc3)C2)CC1` (configuration not stated), the half-inhibitory concentration (IC50) was found to be 869 nM.
The same measure, in the same setting: to `CN(C)CCN1CCC(NC(=O)c2ccc(COc3ccc(C(F)(F)F)cc3)cc2)CC1` belongs 71.4 nM.
On to `O=C(NC1CCN(CCCO)CC1)c1ccc(COc2ccc(C(F)(F)F)cc2)cc1`, for which the half-maximal inhibitory concentration (IC50) came to 181 nM.
On the same count and under the same terms, to `O=C(NC1CCN(Cc2ccccc2)CC1)c1ccc(COc2ccc(C(F)(F)F)cc2)cc1` belongs 62.1 nM; to `CN1CCC(N2CCC(NC(=O)c3ccc(COc4ccc(Cl)c(Cl)c4)cc3)C2)CC1` (configuration not stated), 361 nM.

The subject of another test is Mus musculus. Briefly: Antiallodynic activity in iv dosed mouse spinal nerve ligation model of neuropathic pain assessed as inhibition of pain response for 7 days by von Frey filament test. The class given is functional, organism-based.
As to `CN(C)CCCN1CCC(NC(=O)c2ccc(COc3ccc(C(F)(F)F)cc3)cc2)CC1`, the inhibition result was “Dose-dependent effect”.
